According to ChEMBL document CHEMBL5528016, “Design, synthesis and evaluation of novel deferasirox derivatives with high antifungal potency in vitro and in vivo” (Eur J Med Chem, 2024):
In brackets after ≈: the same amount, converted by molar mass.

Legend:
[1] = test system: [Candida] auris; experiment: Antifungal activity against Candida auris D12 assessed as reduction in fungal growth incubated for 72 hrs by broth microdilution method; format: functional; conditions: Candidozyma auris
[2] = test system: Candida parapsilosis; experiment: Antifungal activity against Candida parapsilosis ATCC 22019 assessed as reduction in fungal growth incubated for 72 hrs by broth microdilution method; format: functional; conditions: Lodderomyces parapsilosis
[3] = test system: Candida albicans; experiment: Antifungal activity against Candida albicans SC5314 assessed as reduction in fungal growth incubated for 72 hrs by broth microdilution method; format: functional
[4] = test system: Cryptococcus neoformans; experiment: Antifungal activity against Cryptococcus neoformans H99 assessed as reduction in fungal growth incubated for 72 hrs by broth microdilution method; format: functional
[5] = test system: Pichia kudriavzevii; experiment: Antifungal activity against Pichia kudriavzevii 4946 assessed as reduction in fungal growth incubated for 72 hrs by broth microdilution method; format: functional
[6] = test system: Nakaseomyces glabratus; experiment: Antifungal activity against Candida glabrata 537 assessed as reduction in fungal growth incubated for 72 hrs by broth microdilution method; format: functional
[7] = test system: Candida tropicalis; experiment: Antifungal activity against Candida tropicalis 2718 assessed as reduction in fungal growth incubated for 72 hrs by broth microdilution method; format: functional
[8] = test system: Cryptococcus neoformans; experiment: Potency index, ratio of deferasirox MIC to test compound for antifungal activity against Cryptococcus neoformans H99 incubated for 72 hrs by broth microdilution method; format: functional
[9] = test system: Cryptococcus neoformans; experiment: Antifungal activity against Cryptococcus neoformans 444 assessed as reduction in fungal growth incubated for 72 hrs by broth microdilution method; format: functional
[10] = test system: Nakaseomyces glabratus; experiment: Antifungal activity against Candida glabrata Y10-15 assessed as reduction in fungal growth incubated for 48 hrs by broth microdilution method; format: functional
[11] = test system: Cryptococcus neoformans; experiment: Antifungal activity against Cryptococcus neoformans HN1 assessed as reduction in fungal growth incubated for 72 hrs by broth microdilution method; format: functional
[12] = test system: Cryptococcus neoformans; experiment: Antifungal activity against Cryptococcus neoformans HN15 assessed as reduction in fungal growth incubated for 72 hrs by broth microdilution method; format: functional
[13] = Antifungal activity against Cryptococcus gattii VGI SCZ20024 assessed as reduction in fungal growth incubated for 72 hrs by broth microdilution method; format: functional
[14] = test system: Nakaseomyces glabratus; experiment: Antifungal activity against Candida glabrata YC1-34 assessed as reduction in fungal growth incubated for 48 hrs by broth microdilution method; format: functional
[15] = test system: Cryptococcus neoformans; experiment: Antifungal activity against Cryptococcus neoformans BJ3 assessed as reduction in fungal growth incubated for 72 hrs by broth microdilution method; format: functional
[16] = Antifungal activity against Cryptococcus gattii VGI SCZ20031 assessed as reduction in fungal growth incubated for 72 hrs by broth microdilution method; format: functional
[17] = test system: Nakaseomyces glabratus; experiment: Antifungal activity against Candida glabrata 203 assessed as reduction in fungal growth incubated for 48 hrs by broth microdilution method; format: functional
[18] = Antifungal activity against Cryptococcus gattii VGI WM179 assessed as reduction in fungal growth incubated for 72 hrs by broth microdilution method; format: functional
[19] = test system: Nakaseomyces glabratus; experiment: Antifungal activity against Candida glabrata 337 assessed as reduction in fungal growth incubated for 48 hrs by broth microdilution method; format: functional
[20] = Antifungal activity against Cryptococcus gattii VGI E566 assessed as reduction in fungal growth incubated for 72 hrs by broth microdilution method; format: functional
[21] = test system: Cryptococcus neoformans; experiment: Antifungal activity against Cryptococcus neoformans 20 assessed as reduction in fungal growth incubated for 72 hrs by broth microdilution method; format: functional
[22] = test system: Erythrocyte; experiment: Hemolytic activity in rabbit Red blood cell at 64 ug/ml; format: toxicity, cell-based, Oryctolagus cuniculus; conditions: dose 64 µg/ml
[23] = Antifungal activity against Cryptococcus gattii VGI WM178 assessed as reduction in fungal growth incubated for 72 hrs by broth microdilution method; format: functional

In the case of O=C(NCCC1CCOCC1)c1ccc(-n2nc(-c3ccccc3O)nc2-c2ccccc2O)cc1, the MIC [1] was > 64 µg/mL, the MIC [2] was 32 µg/mL (≈ 66 µM) and the MIC [3] was 32 µg/mL (≈ 66 µM). For the same compound, the MIC [4] was 0.25 µg/mL (≈ 0.516 µM), the MIC [5] was 16 µg/mL (≈ 33 µM) and the MIC [6] was < 0.125 µg/mL. For the same compound, the MIC [7] was 1 µg/mL (≈ 2.06 µM).

Compound Cc1nccn1CCCNC(=O)c1ccc(-n2nc(-c3ccccc3O)nc2-c2ccccc2O)cc1 has an MIC [4] of 8 µg/mL (≈ 16.2 µM).

With C[N+]1(CCNC(=O)c2ccc(-n3nc(-c4ccccc4O)nc3-c3ccccc3O)cc2)CCOCC1.[I-] the MIC [4] was 4 µg/mL.

With O=C(NCCCN1CCOCC1)c1cccc(-n2nc(-c3ccccc3O)nc2-c2ccccc2O)c1 the MIC [4] was 2 µg/mL (≈ 4 µM).

Compound O=C(O)c1cccc(-n2nc(-c3ccccc3O)nc2-c2ccccc2O)c1 has an MIC [4] of 4 µg/mL (≈ 10.7 µM).

With O=C(NCCN1CCOCC1)c1ccc(-n2nc(-c3ccccc3O)nc2-c2ccccc2O)cc1 the MIC [1] was > 64 µg/mL, the MIC [2] was 64 µg/mL (≈ 132 µM) and the MIC [3] was 32 µg/mL (≈ 65.9 µM). The MIC [4] was 0.5 µg/mL (≈ 1.03 µM), the MIC [5] was 8 µg/mL (≈ 16.5 µM) and the MIC [6] was < 0.125 µg/mL. It also gave an MIC [7] of 4 µg/mL (≈ 8.24 µM).

For CN1CCOC(CNC(=O)c2ccc(-n3nc(-c4ccccc4O)nc3-c3ccccc3O)cc2)C1 (stereo unspecified), the MIC [1] was > 64 µg/mL, the MIC [2] was 32 µg/mL (≈ 65.9 µM) and the MIC [3] was 2 µg/mL (≈ 4.12 µM). For the same compound, the MIC [4] was 0.5 µg/mL (≈ 1.03 µM), the MIC [5] was 4 µg/mL (≈ 8.24 µM) and the MIC [6] was < 0.125 µg/mL. The MIC [7] was 1 µg/mL (≈ 2.06 µM).

Work on CN1CCC(CNC(=O)c2ccc(-n3nc(-c4ccccc4O)nc3-c3ccccc3O)cc2)CC1 yielded an MIC [4] of 4 µg/mL (≈ 8.27 µM).

With COC(=O)CCNC(=O)c1ccc(-n2nc(-c3ccccc3O)nc2-c2ccccc2O)cc1 the Ratio [8] was 4, the MIC [1] was > 64 µg/mL and the MIC [2] was > 64 µg/mL. The MIC [3] was > 64 µg/mL, the MIC [4] was 0.5 µg/mL (≈ 1.09 µM) and the MIC [5] was 4 µg/mL (≈ 8.72 µM). The MIC [6] was < 0.125 µg/mL and the MIC [7] was 0.125 µg/mL (≈ 0.273 µM).

For O=C1C[C@H](NC(=O)c2ccc(-n3nc(-c4ccccc4O)nc3-c3ccccc3O)cc2)CO1, the MIC [4] was > 64 µg/mL.

O=C(c1ccc(-n2nc(-c3ccccc3O)nc2-c2ccccc2O)cc1)N1CCC(O)CC1 showed an MIC [4] of 4 µg/mL (≈ 8.76 µM).

With CCCCNC(=O)c1ccc(-n2nc(-c3ccccc3O)nc2-c2ccccc2O)cc1 the MIC [4] was 4 µg/mL (≈ 9.34 µM).

Compound O=C(NC1CCS(=O)(=O)C1)c1cccc(-n2nc(-c3ccccc3O)nc2-c2ccccc2O)c1 (stereo unspecified) has an MIC [4] of 4 µg/mL (≈ 8.15 µM).

O=C(NCCO)c1ccc(-n2nc(-c3ccccc3O)nc2-c2ccccc2O)cc1 gave an MIC [4] of 4 µg/mL (≈ 9.61 µM).

With O=C(NC1CCS(=O)(=O)CC1)c1ccc(-n2nc(-c3ccccc3O)nc2-c2ccccc2O)cc1 the MIC [4] was 4 µg/mL (≈ 7.93 µM).

Compound COCCCNC(=O)c1ccc(-n2nc(-c3ccccc3O)nc2-c2ccccc2O)cc1 has an MIC [4] of 4 µg/mL (≈ 9 µM).

With COCCNC(=O)c1ccc(-n2nc(-c3ccccc3O)nc2-c2ccccc2O)cc1 the MIC [1] was > 64 µg/mL, the MIC [2] was > 64 µg/mL and the MIC [3] was 8 µg/mL (≈ 18.6 µM). The MIC [4] was 0.25 µg/mL (≈ 0.581 µM), the MIC [5] was 1 µg/mL (≈ 2.32 µM) and the MIC [6] was < 0.125 µg/mL. The MIC [7] was 4 µg/mL (≈ 9.29 µM).

In the case of O=C(NCCCO)c1ccc(-n2nc(-c3ccccc3O)nc2-c2ccccc2O)cc1, the MIC [4] was 2 µg/mL (≈ 4.65 µM).

For O=C(NCCCN1CCOCC1)c1ccc(-n2nc(-c3ccccc3O)nc2-c2ccccc2O)cc1, the MIC [4] was 1 µg/mL (≈ 2 µM).

With O=C(NCC(O)c1ccccc1)c1ccc(-n2nc(-c3ccccc3O)nc2-c2ccccc2O)cc1 (stereo unspecified) the MIC [4] was 4 µg/mL (≈ 8.12 µM).

O=C(c1ccc(-n2nc(-c3ccccc3O)nc2-c2ccccc2O)cc1)N1CCOCC1 showed an MIC [4] of 4 µg/mL (≈ 9.04 µM).

With NC(=O)c1ccc(-n2nc(-c3ccccc3O)nc2-c2ccccc2O)cc1 the MIC [4] was 4 µg/mL (≈ 10.7 µM).

With O=C(NCCc1ccccc1)c1ccc(-n2nc(-c3ccccc3O)nc2-c2ccccc2O)cc1 the MIC [4] was 8 µg/mL (≈ 16.8 µM).

Compound CCNC(=O)c1ccc(-n2nc(-c3ccccc3O)nc2-c2ccccc2O)cc1 has an MIC [4] of 1 µg/mL (≈ 2.5 µM).

For O=C(N[C@@H]1CCOC1)c1ccc(-n2nc(-c3ccccc3O)nc2-c2ccccc2O)cc1, the MIC [4] was 4 µg/mL (≈ 9.04 µM).

In the case of OC(Cn1cncn1)(Cn1cncn1)c1ccc(F)cc1F [FLUCONAZOLE], the MIC [9] was 16 µg/mL (≈ 52.2 µM), the MIC [10] was 4 µg/mL (≈ 13.1 µM) and the MIC [1] was > 64 µg/mL. It also gave an MIC [2] of 1 µg/mL (≈ 3.27 µM), an MIC [11] of 2 µg/mL (≈ 6.53 µM) and an MIC [3] of 0.125 µg/mL (≈ 0.408 µM). For the same compound, the MIC [12] was 4 µg/mL (≈ 13.1 µM), the MIC [13] was 4 µg/mL (≈ 13.1 µM) and the MIC [14] was 2 µg/mL (≈ 6.53 µM). The MIC [15] was 8 µg/mL (≈ 26.1 µM), the MIC [5] was 16 µg/mL (≈ 52.2 µM) and the MIC [16] was 4 µg/mL (≈ 13.1 µM). For the same compound, the MIC [17] was > 64 µg/mL, the MIC [18] was 16 µg/mL (≈ 52.2 µM) and the MIC [19] was 2 µg/mL (≈ 6.53 µM). It also gave an MIC [20] of 32 µg/mL (≈ 104 µM), an MIC [21] of 8 µg/mL (≈ 26.1 µM) and an MIC [6] of 0.25 µg/mL (≈ 0.816 µM). The Activity [22] was “Non-Toxic”, the MIC [7] was < 0.125 µg/mL and the MIC [23] was 16 µg/mL (≈ 52.2 µM).

With O=C(NCCCC(F)(F)F)c1ccc(-n2nc(-c3ccccc3O)nc2-c2ccccc2O)cc1 the MIC [4] was 8 µg/mL (≈ 16.6 µM).

For CCOCCNC(=O)c1ccc(-n2nc(-c3ccccc3O)nc2-c2ccccc2O)cc1, the MIC [4] was 1 µg/mL (≈ 2.25 µM).

With O=C(NCCN1CCC(F)(F)CC1)c1ccc(-n2nc(-c3ccccc3O)nc2-c2ccccc2O)cc1 the MIC [4] was 1 µg/mL (≈ 1.92 µM).

With O=C(NNc1ccccc1)c1ccc(-n2nc(-c3ccccc3O)nc2-c2ccccc2O)cc1 the MIC [4] was 2 µg/mL (≈ 4.32 µM).
